Test results as given in US5541169A, “Azoxy compound” (Kowa Company, Ltd., priority 1992, dated 1996).
Values after ≈ are worked out from the molar mass of the structure shown.

What was measured:
Candida albicans = assay: Minimum inhibitory concentration, agar plate dilution method (Sabouraud dextrose medium); assay type: cell-based; conditions: C.a.
Method: (§1) The minimum inhibition concentration was assayed by the agar plate dilution method using Sabouraud dextrose medium.

Microsporum canis = assay: as above; assay type: cell-based; conditions: M.c.
Method: as §1

[1] = tested on: Trichophyton mentagrophytes; assay: as above; assay type: cell-based; conditions: T.m.
Method: as §1

Trichophyton rubrum = assay: as above; assay type: cell-based; conditions: T.r.
Method: as §1

[2] = Stability in ethanol (residual ratio by HPLC); assay type: physicochemical; conditions: 50% ethanol, 50% ethanol solution, 0.01%; for remaining at 2160 h: 3 months; for remaining at 288 h: 12 days
Method: The residual ratio was determined under the following conditions by the HPLC method.
*Measured in a 50% ethanol solution (sample concentration: 0.01%)
Column: STR ODSM 4.6 × 150 mm
Injection volume: 40 μl
Mobile phase: CH3 CN:H2 O (1:1)
Temperature: room temperature

fungi = conditions: prior-art compounds; cited from earlier work
[3] = prior-art compounds; cited from earlier work

| SMILES | MIC (Candida albicans) | MIC (Microsporum canis) | MIC [1] | MIC (Trichophyton rubrum) | remaining at 2160 h ([2]; 4° C.) | remaining at 288 h ([2]; 4° C.) | remaining at 2160 h ([2]; 25° C.) | remaining at 288 h ([2]; 25° C.) | remaining at 2160 h ([2]; 40° C.) | remaining at 288 h ([2]; 40° C.) | remaining at 2160 h ([2]; pH 4, pH 4, 40° C.) | remaining at 288 h ([2]; pH 4, pH 4, 40° C.) | remaining at 2160 h ([2]; pH 6, pH 6, 40° C.) | remaining at 288 h ([2]; pH 6, pH 6, 40° C.) | remaining at 2160 h ([2]; pH 8, pH 8, 40° C.) | remaining at 288 h ([2]; pH 8, pH 8, 40° C.) | antifungal activity (in words) (fungi) | stability (in words) [3] |
| --- | --- | --- | --- | --- | --- | --- | --- | --- | --- | --- | --- | --- | --- | --- | --- | --- | --- | --- |
| C[C@H](N=[N+]([O-])c1ccc(OCC#CI)cc1)[C@@H](C)O [Example 17, 2(R)-3(S)-3-(4-(3-iodo-2-propynyloxy)phenyl-ONN-azoxy)-2-butanol] | 6.3 µg/mL (≈ 16.8 µM) | 0.8 µg/mL (≈ 2.14 µM) | 1.6 µg/mL (≈ 4.28 µM) | 1.6 µg/mL (≈ 4.28 µM) | 100% | 100% | 99.4% | 102% | 100% | 99.8% | 100% | 99.7% | 99.9% | 100% | 100% | 100% |  |  |
| CC(=NO)[C@H](C)N=[N+]([O-])/C=C/c1ccc(OCC#CI)cc1 [Control, reference compound] |  |  |  |  |  | 99.3% |  | 95.8% |  | 96.6% |  | 0% |  | 79.7% |  | 91.4% |  |  |
| CC(=C[N+]([O-])=NC(C)COCC#CI)c1ccc(Cl)cc1 (centres unmarked) [Example 1, 2-(2-(4-chlorophenyl)-1-propenyl-ONN-azoxy)-1-(3-iodo-2-propynyloxy)propan] | 50 µg/mL (≈ 119 µM) | 1.6 µg/mL (≈ 3.82 µM) | 0.4 µg/mL (≈ 0.955 µM) | 0.8 µg/mL (≈ 1.91 µM) |  |  |  |  |  |  |  |  |  |  |  |  |  |  |
| CCCC/C=C/[N+]([O-])=N[C@@H](C)C(C)=O [KA-7367A] |  |  |  |  |  |  |  |  |  |  |  |  |  |  |  |  | excellent antifungal activity | unstable |
| C#CCOc1ccc(C=C[N+]([O-])=NC(C)C(C)O)cc1 (centres unmarked) [Example 3, 3-(4-(2-propynyloxy)styryl-ONN-azoxy)-2-butanol] | 25 µg/mL (≈ 91.1 µM) | 0.2 µg/mL (≈ 0.729 µM) |  | 0.2 µg/mL (≈ 0.729 µM) |  |  |  |  |  |  |  |  |  |  |  |  |  |  |
| CC(O)C(C)N=[N+]([O-])c1ccc(OCC#CI)cc1 (centres unmarked) [Example 11, 3-(4-(3-iodo-2-propynyloxy)phenyl-ONN-azoxy)-2-butanol] | 6.3 µg/mL (≈ 16.8 µM) | 0.8 µg/mL (≈ 2.14 µM) | 1.6 µg/mL (≈ 4.28 µM) | 1.6 µg/mL (≈ 4.28 µM) |  |  |  |  |  |  |  |  |  |  |  |  |  |  |
| C[C@H](N=[N+]([O-])C=Cc1ccc(OCC#CI)cc1)[C@@H](C)O [5 (2R), 2(R)-3(S)-3-(4-(3-iodo-2-propynyloxy)styryl-ONN-azoxy)-2-butanol] | 12.5 µg/mL (≈ 31.2 µM) | 1.6 µg/mL (≈ 4 µM) | 0.8 µg/mL (≈ 2 µM) | 1.6 µg/mL (≈ 4 µM) | 99.6% |  | 99.3% |  | 92.7% |  | 101% |  | 101% |  | 83.6% |  |  |  |
| C[C@H](O)[C@H](C)N=[N+]([O-])C=Cc1ccc(OCC#CI)cc1 [5 (2S), 2(S)-3(S)-3-(4-(3-iodo-2-propynyloxy)styryl-ONN-azoxy)-2-butanol] | 6.3 µg/mL (≈ 15.7 µM) | 1.6 µg/mL (≈ 4 µM) | 0.8 µg/mL (≈ 2 µM) | 1.6 µg/mL (≈ 4 µM) | 99.8% |  | 97.4% |  | 86.1% |  | 100% |  | 99.1% |  | 74.2% |  |  |  |
| CC(=C[N+]([O-])=NC(C)C(C)OCC#CI)c1ccccc1Cl (centres unmarked) [Example 2, 3-(2-(2-chlorophenyl)-1-propenyl-ONN-azoxy)-2-(3-iodo-2-propynyloxy)butane] | 50 µg/mL (≈ 116 µM) | 1.6 µg/mL (≈ 3.7 µM) | 1.6 µg/mL (≈ 3.7 µM) | 1.6 µg/mL (≈ 3.7 µM) |  |  |  |  |  |  |  |  |  |  |  |  |  |  |
